Reference: patent US20110281951A1, “Compositions and methods for treating amyloidosis” (priority 1999, published 2011)

Legend:
Assay type in all cases: biochemical
IAPP = biological target: T1, IAPP (Homo sapiens, UniProt P10997); experiment: CD analysis of IAPP fibril formation (Example 4); design: add 10 μL of 10 mg/mL IAPP stock solution (final 100 ng peptide)
T1 sequence (P10997 34-70 limits assumed): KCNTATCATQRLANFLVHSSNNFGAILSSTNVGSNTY

Aβ42 = biological target: T2, Aβ42 (Homo sapiens, UniProt P05067); experiment: Solubility assay using Bradford detection (Aβ fibril formation); conditions: roughly 1:10 peptide:compound, overnight at room temperature, 10 mM phosphate buffer pH 7
T2 construct: Stock solution of Aβ42 or Aβ40 peptide at 5 mg/ml in distilled water, pH 7; made in house; host or cells: chemical synthesis (FMOC), HPLC purified
Procedure: Alternatively, peptides can also be obtained from a number of commercial sources (e.g., BaChem and Peninsula Laboratories, California). The assay was conducted as follows. Stock solution of Aβ42 or Aβ40 peptide at 5 mg/ml in distilled water, pH 7, and stock solutions of each test compound at 2 mg/ml in distilled water, pH 7 were prepared. • 1. Mix 5 μl (25 μg) of stock Aβ and 12.5 μl (25 μg) of stock test compounds into 1000 μl of 10 mM phosphate buffer, pH 7. This provides a molar ratio of roughly 1:10 [ peptide:compound] assuming a general molecular weight of 400 daltons for the test compounds. Control samples were prepared for both peptide and compound. These contained Aβ only using both 25 μg (5 μl stock Aβ) and 50 μg ([…]) to provide a standard curve for each run. Test compound controls contained 25 μg of material (12.5 μl of stock). All samples were mixed in 1000 μl of 10 mM phosphate buffer, pH 7 to final volume of 1017.5 μl. • 2. Incubate all samples overnight at room temperature without mixing. • 3. Spin at 14,000 rpm for 10 min in table top Eppendorf microfuge. • 4. Take 800 μl of supernatant. • 5. Add 200 μl of Bradford reagent (purchased from BioRad). • 6. Mix well by vortexing. • 7. Read at OD595 nm.

Aβ(1-40) = biological target: T3, Aβ(1-40) (Homo sapiens, UniProt P05067); experiment: Circular dichroism analysis, pre-incubation assay, β-sheet at 218 nm; conditions: CD 218 nm, 0.02M Tris pH 7.4
T3 construct: Prepare a fresh 40 μm solution of Aβ(1-40) in 0.02M Tris, pH 7.4; made in house; host or cells: chemical synthesis (FMOC), HPLC purified
Procedure: The assay is conducted as follows:
Instrument: JASCO J-715 Spectropolarimeter.
Cell/cuvette: Hellma quartz (QS) with 1.0 mm pathlength Room temperature. Wavelength interval: 250 nm-190 nm.
Band width: 1.0 nm Response time: 1 sec Scanning speed: 20 nm/min Number of accumulations/spectrum: 5
1. Prepare a fresh 40 μm solution of Aβ(1-40) in 0.02M Tris, pH 7.4.
2. Prepare a 1 mM solution of test compounds in 0.02M Tris, pH 7.4.
3. Combine equal volumes of the Aβ(1-40) and test compound solutions.
4. Incubate the mixtures for 19 h.
5. Take the CD spectrum using the parameters above.
6. Return the mixtures to the incubator and incubate to 43 h.
7. Take the CD spectrum using the parameters above. • Inhibition of Aβ40 assembly/aggregation is determined by comparing the amount of b-sheet structure) appearing at lambda=218 nm) obtained in control and in treated sample at each timepoint.

T3 sequence (P05067 672-711 limits assumed): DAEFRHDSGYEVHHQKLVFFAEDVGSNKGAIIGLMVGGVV
T2 sequence (P05067 672-713 limits assumed): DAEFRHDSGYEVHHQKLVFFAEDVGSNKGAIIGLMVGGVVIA

Row | Activity (preventing or inhibiting IAPP fibril formation) (IAPP) | Aβ42 remaining in the supernatant (activity class) (Aβ42) | relative inhibition compared to Aβ alone, incubation time 0 h (Aβ(1-40)) | relative inhibition compared to Aβ alone, incubation time 19 h (Aβ(1-40)) | relative inhibition compared to Aβ alone, incubation time 43 h (Aβ(1-40)) | SMILES
1 | Active |  |  |  |  | O=S(=O)(O)CCCNC1(CO)CCCC1 [XLII, 3-(1-hydroxymethyl-1-cyclopentyl)amino-1-propanesulfonic acid]
2 |  | Active | —^1, 2 (No effect compared to Aβ alone) | + (+: 0-25%) | ++ (++: 25-50%) | O=S(=O)(O)CCCN1CCc2ccccc2C1 [XVII, 3-[2-(1,2,3,4-tetrahydroisoquinolinyl)]-1-propanesulfonic acid]
3 |  | Very active |  |  |  | COc1cc(-c2ccc(N=Nc3ccc4c(S(=O)(=O)[O-])cc(S(=O)(=O)[O-])c(N)c4c3O)c(OC)c2)ccc1N=Nc1ccc2c(S(=O)(=O)[O-])cc(S(=O)(=O)[O-])c(N)c2c1O.[Na+].[Na+].[Na+].[Na+] [XXIX, Chicago Sky Blue 6B]
4 | Active |  | — (No effect compared to Aβ alone) | +++ (+++: 50-75%) | ++ (++: 25-50%) | CC(CCCO)NCCCS(=O)(=O)O (stereo not drawn) [XXXVIII, 3-[(dl)-5-hydroxy-2-pentyl]amino-1-propanesulfonic acid]
